Source: the NIST ThermoML archive (doi:10.1021/je800100m)
± gives the expanded uncertainty stated by the source.

Columns and labels:
[1] = Liquid; for speed of sound: 101.3 kPa, Sing-around technique in a fixed-path interferometer; for mass density: 101.33 kPa, Pycnometric method
[2] = xn = mol fraction of the nth substance listed; settings: 308.15 K, 101 kPa, Liquid, Sing-around technique in a fixed-path interferometer

**Q.** With Cc1ccccc1C [1,2-dimethylbenzene] as the molecule, how does the speed of sound ([1]; 298.15 K) read?
**A.** 1344 ± 5.4 m/s

**Q.** What about the mass density ([1]; 298.15 K) of the same molecule?
**A.** 875.99 ± 5.6 kg/m3

**Q.** For Cc1ccc(C)cc1 [1,4-dimethylbenzene], which speed of sound ([1]; 298.15 K) is on record?
**A.** 1310.1 ± 5.4 m/s

**Q.** What about the mass density ([1]; 298.15 K) of the same molecule?
**A.** 856.58 ± 5.3 kg/m3

**Q.** For Cc1ccccc1N [2-methylaniline], which mass density ([1]; 298.15 K) is on record?
**A.** 994.28 ± 7.2 kg/m3

**Q.** What about the speed of sound ([1]; 308.15 K) of the same molecule?
**A.** 1603 ± 5 m/s

**Q.** Which speed of sound ([2]; x1 = 0.0534) does the source give for Cc1ccccc1N [2-methylaniline] + Cc1ccc(C)cc1 here?
**A.** 1287 ± 5 m/s

**Q.** And the speed of sound ([2]; x1 = 0.1009)?
**A.** 1295 ± 5 m/s

**Q.** What about the speed of sound ([2]; x1 = 0.1707) of the same molecule?
**A.** 1308 ± 5 m/s

**Q.** And the speed of sound ([2]; x1 = 0.2483)?
**A.** 1325 ± 5 m/s

**Q.** And the speed of sound ([2]; x1 = 0.32)?
**A.** 1342 ± 5 m/s

**Q.** What about the speed of sound ([2]; x1 = 0.3949) of the same molecule?
**A.** 1361 ± 5 m/s

**Q.** And the speed of sound ([2]; x1 = 0.4559)?
**A.** 1378 ± 5 m/s

**Q.** What about the speed of sound ([2]; x1 = 0.5332) of the same molecule?
**A.** 1402 ± 5 m/s

**Q.** And the speed of sound ([2]; x1 = 0.6007)?
**A.** 1423 ± 5 m/s

**Q.** What about the speed of sound ([2]; x1 = 0.6897) of the same molecule?
**A.** 1455 ± 5 m/s

**Q.** What about the speed of sound ([2]; x1 = 0.7417) of the same molecule?
**A.** 1475 ± 5 m/s

**Q.** What about the speed of sound ([2]; x1 = 0.8009) of the same molecule?
**A.** 1500 ± 5 m/s

**Q.** What about the speed of sound ([2]; x1 = 0.8668) of the same molecule?
**A.** 1530 ± 5 m/s

**Q.** And the speed of sound ([2]; x1 = 0.9374)?
**A.** 1567 ± 5 m/s

**Q.** For Cc1ccccc1N [2-methylaniline] + Cc1ccccc1, which speed of sound ([2]; x1 = 0.0457) is on record?
**A.** 1270 ± 5 m/s

**Q.** What about the speed of sound ([2]; x1 = 0.0998) of the same molecule?
**A.** 1283 ± 5 m/s

**Q.** What about the speed of sound ([2]; x1 = 0.1516) of the same molecule?
**A.** 1296 ± 5 m/s

**Q.** What about the speed of sound ([2]; x1 = 0.2017) of the same molecule?
**A.** 1308 ± 5 m/s

**Q.** What about the speed of sound ([2]; x1 = 0.2773) of the same molecule?
**A.** 1327 ± 5 m/s

**Q.** What about the speed of sound ([2]; x1 = 0.3496) of the same molecule?
**A.** 1346 ± 5 m/s

**Q.** What about the speed of sound ([2]; x1 = 0.407) of the same molecule?
**A.** 1359 ± 5 m/s

**Q.** And the speed of sound ([2]; x1 = 0.4797)?
**A.** 1381 ± 5 m/s

**Q.** What about the speed of sound ([2]; x1 = 0.5882) of the same molecule?
**A.** 1414 ± 5 m/s

**Q.** And the speed of sound ([2]; x1 = 0.6667)?
**A.** 1440 ± 5 m/s

**Q.** What about the speed of sound ([2]; x1 = 0.7464) of the same molecule?
**A.** 1470 ± 5 m/s

**Q.** And the speed of sound ([2]; x1 = 0.8033)?
**A.** 1494 ± 5 m/s

**Q.** What about the speed of sound ([2]; x1 = 0.8647) of the same molecule?
**A.** 1523 ± 5 m/s

**Q.** And the speed of sound ([2]; x1 = 0.9223)?
**A.** 1554 ± 5 m/s

**Q.** Which results are given for Cc1ccccc1N [2-methylaniline] + Cc1ccccc1C?
**A.** speed of sound ([2]; x1 = 0.0799): 1325 ± 5 m/s; speed of sound ([2]; x1 = 0.1313): 1328 ± 5 m/s; speed of sound ([2]; x1 = 0.1977): 1333 ± 5 m/s; speed of sound ([2]; x1 = 0.2507): 1338 ± 5 m/s; speed of sound ([2]; x1 = 0.3003): 1345 ± 5 m/s; speed of sound ([2]; x1 = 0.3663): 1355 ± 5 m/s; speed of sound ([2]; x1 = 0.4456): 1370 ± 5 m/s; speed of sound ([2]; x1 = 0.508): 1385 ± 5 m/s; speed of sound ([2]; x1 = 0.5892): 1408 ± 5 m/s; speed of sound ([2]; x1 = 0.6666): 1434 ± 5 m/s; speed of sound ([2]; x1 = 0.7287): 1459 ± 5 m/s; speed of sound ([2]; x1 = 0.7884): 1485 ± 5 m/s; speed of sound ([2]; x1 = 0.8314): 1505 ± 5 m/s; speed of sound ([2]; x1 = 0.909): 1547 ± 5 m/s

**Q.** Which speed of sound ([1]; 298.15 K) does the source give for Cc1ccccc1 [toluene] here?
**A.** 1304.6 ± 5.4 m/s

**Q.** And the mass density ([1]; 298.15 K)?
**A.** 862.21 ± 5.4 kg/m3
